Measured values published in publication PMC10384572, “Marine Meroterpenoids Isolated from Gongolaria abies-marina Induce Programmed Cell Death in Naegleria fowleri” (Pharmaceuticals, 2023).

Assays:
[1] = test system: N. fowleri ATCC® 30808 trophozoites; experiment: Plasma membrane permeability (SYTOX Green); format: cell-based, Naegleria fowleri; details: IC90 of compound, 24 h
Method: (§1) The evaluation of the programmed cell death induction by the meroterpenoids was performed in the ATCC® 30808™ N. fowleri trophozoites. Cells were incubated over 24 h with the IC90 (Table 1) of the compounds at 37 °C. In these experiments, the presence of different metabolic events which are characteristics of the programmed cell death process were evaluated. For this, five different apoptosis events marker kits (the Hoechst 33342/Propidium Iodide, SYTOX™ Green kit, CellROX® Deep Reagent, JC-1 Mitochondrial Membrane Potential Detection Kit, and the Celltiter-Glo® Luminescent Cell Viability Assay) were used according to manufacturer’s instructions. Furthermore, the percentage of stained cells was determined after incubating the treated and non-treated cells with the stains.
The evaluation of the damage in the cell membrane permeability was conducted with the SYTOX Green assay (Life Technologies, Madrid, Spain). Amoebae were incubated with the molecules over 24 h at 37 °C. An EVOS™ M5000 Imaging System (Invitrogen by Thermo Fisher Scientific) was used to observe the trophozoites. Cells with compromised plasma membrane permeability show bright green fluorescence as the stain reaches the nucleus. However, no fluorescence is observed in negative control cells.
In the PCD assays, the number of stained and unstained cells was measured after the performance of the experiments. Regarding the JC-1 Mitochondrial Membrane Potential assays, the ratio between the emitted red fluorescence (at 595 nm) and green fluorescence (at 535 nm) was determined. For each kit, images (×40) with at least 80 cells were selected and analyzed. […] The graphs illustrate the mean value ± SD of three different tests. Finally, a one-way analysis of variance (ANOVA) was assessed to determine the statistical differences between the treated cells and the negative control amoebae, ** p < 0.01; *** p < 0.001; **** p < 0.0001 significant differences.

N. fowleri ATCC® 30215 = experiment: In vitro activity against N. fowleri trophozoites (alamarBlue), strain ATCC 30215; format: cell-based; details: Naegleria fowleri, ATCC30215, 48 h, mean ± SD
Method: The in vitro activity against N. fowleri trophozoites was evaluated in two different strains from the American Type Culture Collection (LG Promochem, Barcelona, Spain), ATCC® 30808™ and ATCC® 30215™. Cells were axenically grown in 2% Bactocasitone (w/v) medium (Thermo Fisher Scientific, Madrid, Spain) at 37 °C. Moreover, 10% (v/v) of fetal bovine serum (FBS) 0.3 μg/mL of Penicillin G Sodium Salt and 0.5 mg/mL of Streptomycin sulphate (Sigma-Aldrich, Madrid, Spain) were also added to the Bactocasitone medium.
For these assays, a colorimetric assay was conducted using the alamarBlue® reagent. Briefly, N. fowleri trophozoites were seeded in duplicate in a 96-well microtiter plate. After that, different concentrations of the evaluated meroterpenoids diluted in fresh Bactocasitone were added to the wells. The negative control consisted on the trophozoites incubated with the medium alone. Lastly, the alamarBlue® (Life Technologies, Madrid, Spain) reagent was added. Plates were incubated in slight agitation at 37 °C. After 48 h, the fluorescence of the wells was analyzed in an EnSpire Multimode Plate Reader (Perkin Elmer, Madrid, Spain) using a wavelength of excitation of 570 nm and a wavelength of emission of 585 nm.
In order to calculate the IC50 and IC90, a nonlinear regression analysis with a 95% confidence limit was performed.
The in vitro IC50, IC90, and CC50 of the compounds were determined by a non-linear regression with a 95% confidence limit. The SigmaPlot 12.0 software (Systat Sofware Inc., London, UK) was used to perform the data analysis using a paired two-tailed t-test. Values of p < 0.05 were considered significant. The data represent the mean value and the SD of the conducted three different experiments.

[2] = test system: N. fowleri ATCC® 30808 trophozoites; experiment: Chromatin condensation detection (Hoechst 33342/propidium iodide); format: cell-based, Naegleria fowleri; details: IC90 of compound, 24 h
Method: The evaluation of the programmed cell death induction by the meroterpenoids was performed in the ATCC® 30808™ N. fowleri trophozoites. Cells were incubated over 24 h with the IC90 (Table 1) of the compounds at 37 °C. In these experiments, the presence of different metabolic events which are characteristics of the programmed cell death process were evaluated. For this, five different apoptosis events marker kits (the Hoechst 33342/Propidium Iodide, SYTOX™ Green kit, CellROX® Deep Reagent, JC-1 Mitochondrial Membrane Potential Detection Kit, and the Celltiter-Glo® Luminescent Cell Viability Assay) were used according to manufacturer’s instructions. Furthermore, the percentage of stained cells was determined after incubating the treated and non-treated cells with the stains. For the chromatin condensation assay, the Hoechst 33342 and the PI (Life Technologies, Madrid, Spain) were used. The images were captured in the EVOS™ M5000 Imaging System (Invitrogen by Thermo Fisher Scientific). A concentration of 5 × 10^5 cell/mL was seeded and incubated with compounds over 24 h. Three different cell population can be distinguished with this kit. Firstly, healthy cells will barely show blue fluorescence whereas in the presence of condensed chromatin an intense blue fluorescence corresponding to the Hoechst 33342 stain will be observable. Finally, dead cells will show red fluorescence due to the linkage between the nucleus and the PI. In the PCD assays, the number of stained and unstained cells was measured after the performance of the experiments. Regarding the JC-1 Mitochondrial Membrane Potential assays, the ratio between the emitted red fluorescence (at 595 nm) and green fluorescence (at 535 nm) was determined. For each kit, images (×40) with at least 80 cells were selected and analyzed. […] The graphs illustrate the mean value ± SD of three different tests. Finally, a one-way analysis of variance (ANOVA) was assessed to determine the statistical differences between the treated cells and the negative control amoebae, ** p < 0.01; *** p < 0.001; **** p < 0.0001 significant differences.

[3] = test system: N. fowleri ATCC® 30808 trophozoites; experiment: ATP production (Celltiter-Glo Luminescent Cell Viability Assay); format: cell-based, Naegleria fowleri; details: IC90 of compound, 24 h, 2 × 10^5 cells/mL
Method: as §1, with “stains. On the other hand, the measurement of the ATP production was also assessed in order to confirm the mitochondrial damage in the amoebae. For this, the Celltiter-Glo® Luminescent Cell Viability Assay (Promega Biotech Ibérica, Madrid, Spain) was used. The emitted luminescence, which is proportional to the ATP levels, was measured in an EnSpire® Multimode Plate Reader (Perkin Elmer, Madrid, Spain). Experiments were performed in triplicate. In both treated and untreated cells, the ATP production of a concentration of 2 × 10^5 cells/mL was measured.” for “stains.”

SMILES | Plasma membrane permeability damage (SYTOX green) [1] | IC50 (N. fowleri ATCC® 30215) [µM] | IC90 (N. fowleri ATCC® 30215) [µM] | Apoptotic phase suggested by Hoechst/PI staining [2] | Chromatin condensation (Hoechst 33342 stain) [2] | Propidium iodide (PI) red fluorescence [2] | Decrease of ATP production compared to untreated cells [3] [%]
COc1c(C)cc(O)cc1C/C=C(\C)CC(=O)/C=C(\C)CCC[C@@H](C)C(=O)/C=C/C(C)(C)O [1′Methoxyamentadione (3), 1′-methoxyamentadione] | plasma membrane permeability damage | 16.5 ± 0.96 | 59.7 ± 20.2 | early apoptotic phase | induced DNA condensation | no red fluorescence | 82.62
COc1c(C)cc(O)cc1C/C=C(\C)CC(=O)/C=C(/C)CCC[C@@H](C)C(=O)/C=C/C(C)(C)O [6Z-1′Methoxyamentadione (2), 6Z-1′-methoxyamentadione] | plasma membrane permeability damage | 13.3 ± 0.96 | 44.2 ± 14.9 | late apoptotic phase | induced DNA condensation | showed red fluorescence | 92.49
COc1c(C)cc(O)cc1C/C=C(\C)CC(=O)/C=C(\C)CCCC(C)=O [Cystomexicone B (6), cystomexicone B] | plasma membrane permeability damage | 58.1 ± 5.85 | 260 ± 41.1 | early apoptotic phase | induced DNA condensation | no red fluorescence | 65.59
COc1c(C)cc(O)cc1C/C=C(\C)CC(=O)C/C(C)=C/CC[C@@H](C)C(=O)/C=C/C(C)(C)O [Gongolarone B (1), gongolarone B] | plasma membrane permeability damage | 18.9 ± 0.94 | 68.3 ± 1.73 | late apoptotic phase | induced DNA condensation | showed red fluorescence | 85.75
